Measured values: US9403830B2, “Inhibitors of leukotriene production” (Boehringer Ingelheim International GmbH, priority 2012, dated 2016)
pIC50: −log10 of the molar value.

Assays:
human LTA4 hydrolase = target: T1, human LTA4 hydrolase (Homo sapiens, UniProt P09960); assay: LTA4H Enzyme assay (peptidase, Arg-AMC cleavage); type: biochemical; settings: LTA4H enzyme 1 nM, Arg-AMC substrate 50 μM, room temperature 1 h, fluorescence 380/460 nm
T1 sequence (P09960 1-611): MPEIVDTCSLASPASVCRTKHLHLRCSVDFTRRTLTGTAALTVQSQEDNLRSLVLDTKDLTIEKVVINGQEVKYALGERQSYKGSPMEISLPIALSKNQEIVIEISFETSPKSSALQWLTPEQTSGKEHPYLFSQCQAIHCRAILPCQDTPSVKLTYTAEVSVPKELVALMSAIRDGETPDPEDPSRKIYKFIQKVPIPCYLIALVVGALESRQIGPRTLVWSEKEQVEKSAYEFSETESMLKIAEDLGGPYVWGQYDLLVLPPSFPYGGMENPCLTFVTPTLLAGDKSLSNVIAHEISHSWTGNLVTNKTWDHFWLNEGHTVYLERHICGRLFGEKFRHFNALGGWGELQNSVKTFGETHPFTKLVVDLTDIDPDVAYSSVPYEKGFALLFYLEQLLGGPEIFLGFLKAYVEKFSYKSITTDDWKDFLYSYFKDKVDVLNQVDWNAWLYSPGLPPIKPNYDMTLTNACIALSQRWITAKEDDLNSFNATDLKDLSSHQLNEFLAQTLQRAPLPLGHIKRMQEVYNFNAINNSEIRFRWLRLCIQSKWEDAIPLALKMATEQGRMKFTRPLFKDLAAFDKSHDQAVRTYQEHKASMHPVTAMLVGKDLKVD
Procedure: The compounds of the invention are assessed for the ability to interact with human LTA4 hydrolase in an enzymatic assay that measures the ability of the enzyme to cleave the peptide bond of arginyl-aminomethylcoumarin (Arg-AMC). LTA4H Enzyme (1 nM final), Arg-AMC substrate (50 μM final), and compound are combined in a reaction buffer (50 mM Tris-HCl (pH 7.5), 100 mM KCl, 0.5% bovine serum albumin) at room temperature for 1 h. The formation of product is assessed by measuring the fluorescence of aminomethylcoumarin product (excitation wavelength 380 nm/emission wavelength 460 nm). In general, the preferred potency range (IC50) of compounds in the LTA4H Enzyme assay is between 0.1 nM to 10 μM, the more preferred potency range is 0.1 nM to 0.1 μM, and the most preferred potency range is 0.1 nM to 10 nM.

[1] = test system: LTB4 synthesis in human whole blood; assay: human whole blood (HWB) assay, inhibition of LTB4 production; type: cell-based; settings: heparinized human whole blood, calcimycin 20 μM stimulation, plasma LTB4
Procedure: The compounds of the invention are additionally tested in a human whole blood (HWB) assay to determine their ability to inhibit the synthesis of LTB4 in a cellular system. Compounds are combined with heparinized human whole blood and incubated for 15 minutes at 37° C. Calcimycin (20 μM final, prepared in phosphate-buffered saline, pH 7.4) is then added and the mixture is incubated for another 30 minutes at 37° C. The samples are centrifuged for 5 min at low speed (1500×g) and the plasma layer is removed. Plasma LTB4 concentrations are then measured using an antibody-based homogenous time-resolved fluorescence method (CisBio, Bedford, Mass.). In general, the preferred potency range (IC50) of compounds in the HWB assay is between 10 nM to 10 μM, the more preferred potency range is 10 nM to 1 μM, and the most preferred potency range is 10 nM to 100 nM.

Row | SMILES | pIC50 (human LTA4 hydrolase) | pIC50 [1]
1 | COC[C@@H]1CCCN1Cc1nc2cc(Oc3ccc(-c4ccn[nH]4)cc3)ccc2[nH]1 [Example 173, 2-((S)-2-Methoxymethyl-pyrrolidin-1-ylmethyl)-5-[4-(2H-pyrazol-3-yl)-phenoxy]-1H-benzoimidazole] | 9.80 | 6.89
2 | c1cc(-c2ccc(Oc3ccc4nn(CCN5CCCC5)cc4c3)cc2)[nH]n1 [Example 217, 5-[4-(2H-Pyrazol-3-yl)-phenoxy]-2-(2-pyrrolidin-1-yl-ethyl)-2H-indazole] | 9.92 | 7.09
3 | C[C@H]1CCCCN1Cc1nc2cc(Oc3ccc(-c4ccn[nH]4)cc3)ccc2[nH]1 [Example 171, 2-((S)-2-Methyl-piperidin-1-ylmethyl)-5-[4-(2H-pyrazol-3-yl)-phenoxy]-1H-benzoimidazole] | 9.96 | 6.89
4 | O=C1CC[C@@H](OCc2cn3cc(Oc4ccc(-c5ccn[nH]5)cc4)ccc3n2)CN1 [Example 260, (R)-5-{6-[4-(2H-Pyrazol-3-yl)-phenoxy]-imidazo[1,2-a]pyridin-2-ylmethoxy}-piperidin-2-one] | 8.28 | 5.66
5 | c1cc(-c2ccc(Oc3ccc4c(c3)OC(CNCC3CCOCC3)C4)cc2)[nH]n1 (stereo not drawn) [Example 185, {6-[4-(2H-Pyrazol-3-yl)-phenoxy]-2,3-dihydro-benzofuran-2-ylmethyl}-(tetrahydro-pyran-4-ylmethyl)-amine] | 9.35 | 6.82
6 | CS(=O)(=O)NC1CCN(CCc2coc3cc(Oc4ccc(-c5ccn[nH]5)cn4)ccc23)CC1 [Example 141, N-[1-(2-{6-[5-(2H-Pyrazol-3-yl)-pyridin-2-yloxy]-benzofuran-3-yl}-ethyl)-piperidin-4-yl]-methanesulfonamide] | 9.46 | 6.70
7 | CN(Cc1nc2cc(Oc3ccc(-c4ccn[nH]4)cc3)ccc2[nH]1)CC1CCCO1 (stereo not drawn) [Example 85, Methyl-{5-[4-(2H-pyrazol-3-yl)-phenoxy]-1H-benzoimidazol-2-ylmethyl}-(tetrahydro-furan-2-ylmethyl)-amine] | 9.62 | 6.92
8 | COC1CCCN(Cc2nc3cc(Oc4ccc(-c5ccn[nH]5)cc4)ccc3[nH]2)C1 (stereo not drawn) [Example 172, 2-(3-Methoxy-piperidin-1-ylmethyl)-5-[4-(2H-pyrazol-3-yl)-phenoxy]-1H-benzoimidazole] | 10.15 | 6.89
9 | O=C1OCCN1C1CCN(CCc2coc3cc(Oc4ccc(-c5ccn[nH]5)cn4)ccc23)CC1 [Example 130, 3-[1-(2-{6-[5-(2H-Pyrazol-3-yl)-pyridin-2-yloxy]-benzofuran-3-yl}-ethyl)-piperidin-4-yl]-oxazolidin-2-one] | 9.59 | 7.00
10 | O=C1CCC(c2cn3cc(Oc4ccc(-c5ccn[nH]5)cc4)ccc3n2)CN1 (stereo not drawn) [Example 67, 5-{6-[4-(2H-Pyrazol-3-yl)-phenoxy]-imidazo[1,2-a]pyridin-2-yl}-piperidin-2-one] | 8.85 | 6.32
11 | COCC1CCCCN1Cc1nc2cc(Oc3ccc(-c4ccn[nH]4)cc3)ccc2[nH]1 (stereo not drawn) [Example 168, 2-(2-Methoxymethyl-piperidin-1-ylmethyl)-5-[4-(2H-pyrazol-3-yl)-phenoxy]-1H-benzoimidazole] | 9.89 | 6.92
12 | CC(=O)N1CC2CCC(C1)N2Cc1ccc2cc(Oc3ccc(-c4ccn[nH]4)cn3)ccc2n1 [Example 24, 1-(8-{6-[5-(2H-Pyrazol-3-yl)-pyridin-2-yloxy]-quinolin-2-ylmethyl}-3,8-diaza-bicyclo[3.2.1]oct-3-yl)-ethanone] | 9.48 | 7.00
13 | CCN(CCO)Cc1nc2cc(Oc3ccc(-c4ccn[nH]4)cc3)ccc2[nH]1 [Example 192, 2-(Ethyl-{5-[4-(2H-pyrazol-3-yl)-phenoxy]-1H-benzoimidazol-2-ylmethyl}-amino)-ethanol] | 9.77 | 6.77
14 | CC(=O)N[C@H]1C[C@H]2CC[C@@H](C1)N2CC1Cc2ccc(Oc3ccc(-c4ccn[nH]4)cc3)cc2O1 (stereo partly drawn) [Example 131, N-((endo)-8-{6-[4-(2H-Pyrazol-3-yl)-phenoxy]-2,3-dihydro-benzofuran-2-ylmethyl}-8-aza-bicyclo[3.2.1]oct-3-yl)-acetamide] | 9.77 | 6.92
15 | c1cc(-c2ccc(Oc3ccc4c(c3)OC(CN3CCCC3)C4)cc2)[nH]n1 (stereo not drawn) [Example 218, 5-[4-(2-Pyrrolidin-1-ylmethyl-2,3-dihydro-benzofuran-6-yloxy)-phenyl]-1H-pyrazole] | 10.01 | 6.96
16 | CC(=O)NC1CCN(CC2Cc3ccc(Oc4ccc(-c5ccn[nH]5)cn4)cc3O2)CC1 (stereo not drawn) [Example 125, N-(1-{6-[5-(2H-Pyrazol-3-yl)-pyridin-2-yloxy]-2,3-dihydro-benzofuran-2-ylmethyl}-piperidin-4-yl)-acetamide] | 9.54 | 7.00

Now from value to compound:

Row | pIC50 (human LTA4 hydrolase) | pIC50 [1] | SMILES
17 | 9.35 | 6.72 | CCC(=O)N1CCN(Cc2ccc3cc(Oc4ccc(-c5ccn[nH]5)cc4)ccc3n2)CC1 [Example 12, 1-(4-{6-[4-(2H-pyrazol-3-yl)-phenoxy]-quinolin-2-ylmethyl}-piperazin-1-yl)-propan-1-one]
18 | 9.14 | 6.64 | CC(=O)N1CCN(Cc2cc3cc(Oc4ccc(-c5ccn[nH]5)cn4)ccc3[nH]2)CC1 [Example 222, 1-(4-{5-[5-(2H-Pyrazol-3-yl)-pyridin-2-yloxy]-1H-indol-2-ylmethyl}-piperazin-1-yl)-ethanone]
19 | 9.74 | 6.74 | c1cc(-c2ccc(Oc3ccc4[nH]c(CN[C@H]5CCOC5)nc4c3)cc2)[nH]n1 [Example 194, {5-[4-(2H-Pyrazol-3-yl)-phenoxy]-1H-benzoimidazol-2-ylmethyl}-(S)-tetrahydro-furan-3-yl-amine]
20 | 10.27 | 6.77 | c1cc(-c2ccc(Oc3ccc4[nH]c(CN5C[C@H]6CC[C@@H](C5)O6)nc4c3)cc2)[nH]n1 [Example 227, 3-{5-[4-(2H-Pyrazol-3-yl)-phenoxy]-1H-benzoimidazol-2-ylmethyl}-8-oxa-3-aza-bicyclo[3.2.1]octane]
21 | 9.02 | 6.70 | COCC(=O)NC1CCN(Cc2ccc3cc(Oc4ccc(-c5cc[nH]n5)cn4)ccc3n2)CC1 [Example 236, 2-Methoxy-N-(1-{6-[5-(1H-pyrazol-3-yl)-pyridin-2-yloxy]-quinolin-2-ylmethyl}-piperidin-4-yl)-acetamide]
22 | 9.15 | 6.48 | c1cc(-c2ccc(Oc3ccc4nc(CN5CCOCC5)ccc4c3)cc2)[nH]n1 [Example 254, 2-Morpholin-4-ylmethyl-6-[4-(2H-pyrazol-3-yl)-phenoxy]-quinoline]
23 | 8.85 | 6.52 | O=C1CC[C@@H](Cn2ncc3cc(Oc4ccc(-c5ccn[nH]5)cc4)ccc32)N1 [Example 253, (S)-5-{5-[4-(2H-Pyrazol-3-yl)-phenoxy]-indazol-1-ylmethyl}-pyrrolidin-2-one]
24 | 9.00 | 6.70 | N#CCC(=O)N1CCN(Cc2ccc3cc(Oc4ccc(-c5ccn[nH]5)cn4)ccc3n2)CC1 [Example 31, 3-Oxa-3-(4-{6-[5-(2H-pyrazol-3-yl)-pyridin-2-yloxy]-quinolin-2-ylmethyl}-piperazin-1-yl)-propionitrile]
25 | 9.13 | 6.82 | c1cc(-c2ccc(Oc3ccc4nc(CN5C[C@@H]6C[C@H]5CO6)ccc4c3)nc2)[nH]n1 [Example 178, 2-[(1S,4S)-1-(2-Oxa-5-aza-bicyclo[2.2.1]hept-5-yl)methyl]-6-[5-(2H-pyrazol-3-yl)-pyridin-2-yloxy]-quinoline]
26 | 9.20 | 6.74 | COCC(=O)N1CCN(Cc2ccc3cc(Oc4ccc(-c5ccn[nH]5)cn4)ccc3c2)CC1 [Example 1, 2-Methoxy-1-(4-{6-[5-(2H-pyrazol-3-yl)-pyridin-2-yloxy]-naphthalen-2-ylmethyl}-piperazin-1-yl)-ethanone]
27 | 9.68 | 6.72 | CC(=O)N1CCN(Cc2ccc3cc(Oc4ccc(-c5ccn[nH]5)cc4)ccc3n2)CC1 [Example 247, 1-(4-{6-[4-(2H-Pyrazol-3-yl)-phenoxy]-quinolin-2-ylmethyl}-piperazin-1-yl)-ethanone]
